Experiments:
Hep-G2 cells = test: Cell cytotoxicity CC50; type: cell-based; conditions: mean of at least two experiments
Source text: (§1) Plates were scanned and analysed using the Immunospot S6 Macro analyser, which is equipped with BioSpot analysis software for counting immunostained plaques (virospots). Plaque counts were used to calculate % infection relative to the mean of the plaque count in the virus control wells for RSV. […] Plaque EC50 and cell toxicity CC50 values are a mean of at least two experiments and figures are rounded to whole units.

RSV A2 = test: RSV plaque reduction assay; type: cell-based, RSV (RSV A2 ECACC, 0709161v); conditions: Hep-G2 cells, RSV A2, 2 days, mean of at least two experiments
Procedure, shortened: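 Hep-G2 monolayers infected with 100 PFU/well RSV A2 premixed with eight compound dilutions, 2 h at 37° C, then overlaid with 0.8% CMC/2% FBS DMEM containing compound for 2 days. Plaques immunostained (HRP/TrueBlue) and counted; EC50 from % infection versus virus control, mean of at least two experiments.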

[1] = Liver microsomal stability (human); type: in vitro ADME; conditions: 1 µM compound; for half-life at 1 µM: pooled liver microsomes, pH 7.4, 0.5 mg/mL protein, read-out: Liver Microsomal Stability t½
Method: (§2) Compounds were subjected to the following assays to investigate liver microsomal stability.
(§3) Pooled liver microsomes were purchased from a reputable commercial supplier and stored at -80° C. prior to use. Microsomes (final protein concentration 0.5 mg/mL), 0.1 M phosphate buffer pH 7.4 and test compound (final substrate concentration 1 µM; final DMSO concentration 0.25%) were pre-incubated at 37° C. prior to the addition of NADPH (final concentration 1 mM) to initiate the reaction. The final incubation volume was 50 µL. A control incubation was included for each compound tested where 0.1 M phosphate buffer pH 7.4 was added instead of NADPH (minus NADPH). Two control compounds were included with each species. All incubations were performed singularly for each test compound. Each compound was incubated for 0, 5, 15, 30 and 45 min. The control (minus NADPH) was incubated for 45 min only. The reactions were stopped by transferring incubate into acetonitrile at the appropriate time points, in a 1:3 ratio. The termination plates are centrifuged at 3,000 rpm for 20 min at 4° C. to precipitate the protein. Following protein precipitation, the sample supernatants were combined in cassettes of up to 4 compounds, internal standard added, and samples analysed by LC-MS/MS. From a plot of In peak area ratio (compound peak area/internal standard peak area) against time, the gradient of the line was determined. Subsequently, half-life (t½) and intrinsic clearance (CLint) were calculated.

Cell cytotoxicity CC50 = type: cell-based; conditions: human; mean of at least two experiments
Source text: as §1

[2] = Liver microsomal stability (dog); type: in vitro ADME; conditions: 1 µM compound; for half-life at 1 µM: pooled liver microsomes, pH 7.4, 0.5 mg/mL protein, read-out: Liver Microsomal Stability t½
Method: as §2, §3

[3] = Liver microsomal stability (rat); type: in vitro ADME; conditions: 1 µM compound; for half-life at 1 µM: pooled liver microsomes, pH 7.4, 0.5 mg/mL protein, read-out: Liver Microsomal Stability t½
Method: as §2, §3

RSV = conditions: Antimicrobial Agents and Chemotherapy, September 2007, 3346-3353; cited from earlier work
[4] = In vivo pharmacokinetics in rats; set-up: species or system rats [Sprague Dawley (SD)]; conditions: male SD rats
Method: The pharmacokinetics of compounds were studied in vivo in rats at doses of 1 mg/kg (IV) and 10 mg/kg (PO).
Male rats [Sprague Dawley (SD)] surgically prepared with a jugular vein cannula were treated with experimental compounds via intravenous administration (IV; n=3; 1 mg/kg) or oral administration (PO; n=3; 10 mg/kg). Compounds were formulated as a solution in 40:60 dimethylacetamide:saline (IV administration) and a solution of 10% DMSO, 10% cremaphor in water (80%) (PO administration). […] Serial blood samples were collected via the cannula at 0.02, 0.08, 0.25, 0.5, 1, 2, 4, 6, 8 and 24 h post IV dosing of compound, and at 0.08, 0.25, 0.5, 1, 2, 4, 6, 8 and 24 h post oral dosing of compound, and plasma was prepared by centrifugation and stored immediately at -80° C. Samples were subsequently thawed, prepared for analysis by protein precipitation with acetonitrile, and analysed by tandem LCMS using electrospray ionisation using a matrix-matched calibration curve. PK parameters were calculated from the resulting data.

[5] = human respiratory syncytial virus, HepG2, 48 h

Question: Which results are given for CCC1CCCn2nc(-c3ccccc3F)c(C(=O)N[C@H]3N=C(c4ccccc4)c4ccccc4NC3=O)c2O1 (single isomer, unassigned) [Example 24-2, (5S*)-5-ethyl-2-(2-fluorophenyl)-N-[(3S)-2-oxo-5-phenyl-2,3-dihydro-1H-1,4-benzodiazepin-3-yl]-5H,6H,7H,8H-pyrazolo[3,2-b][1,3]oxazepine-3-carboxamide]?
Answer: CC50 (Hep-G2 cells): > 25000 nM; EC50 (RSV A2): 89 nM

Question: With CCC1CCCn2nc(-c3ccccc3F)c(C(=O)N[C@H]3N=C(c4ccccc4)c4cccc(F)c4NC3=O)c2O1 (single isomer, unassigned) [Example 25-2, (5S*)-5-ethyl-2-(2-fluorophenyl)-N-[(3S)-9-fluoro-2-oxo-5-phenyl-1,3-dihydro-1,4-benzodiazepin-3-yl]-5,6,7,8-tetrahydropyrazolo[5,1-b][1,3]oxazepine-3-carboxamide] as the molecule, how does the CC50 (Hep-G2 cells) read?
Answer: Its CC50 is greater than 25000 nM.

Question: And the EC50 (RSV A2)?
Answer: The EC50 was 83 nM.

Question: With CCC1CCCn2nc(-c3ccc(C)nc3)c(C(=O)N[C@H]3N=C(c4ccccc4)c4ccccc4NC3=O)c2O1 (single isomer, unassigned) [Example 26-2, (5S*)-5-ethyl-2-(6-methylpyridin-3-yl)-N-[(3S)-2-oxo-5-phenyl-2,3-dihydro-1H-1,4-benzodiazepin-3-yl]-5H,6H,7H,8H-pyrazolo[3,2-b][1,3]oxazepine-3-carboxamide] as the molecule, how does the CC50 (Hep-G2 cells) read?
Answer: The CC50 was greater than 25000 nM.

Question: And the EC50 (RSV A2)?
Answer: The EC50 was 329 nM.

Question: Which results are given for CCC1CCCn2nc(-c3ccc(C)nc3)c(C(=O)N[C@H]3N=C(c4ccccc4)c4cccc(F)c4NC3=O)c2O1 (single isomer, unassigned) [Example 27-2, (5S*)-5-ethyl-N-[(3S)-9-fluoro-2-oxo-5-phenyl-2,3-dihydro-1H-1,4-benzodiazepin-3-yl]-2-(6-methylpyridin-3-yl)-5H,6H,7H,8H-pyrazolo[3,2-b][1,3]oxazepine-3-carboxamide]?
Answer: CC50 (Hep-G2 cells): > 25000 nM; EC50 (RSV A2): 259 nM

Question: Which half-life at 1 µM [1] does the source give for O=C(N[C@H]1N=C(c2ccccc2)c2cccc(F)c2NC1=O)c1c(-c2ccccc2F)nn2c1OCCCC2 [Example 2, N-[(3S)-9-Fluoro-2-oxo-5-phenyl-1,3-dihydro-1,4-benzodiazepin-3-yl]-2-(2-fluorophenyl)-5,6,7,8-tetrahydropyrazolo[5,1-b][1,3]oxazepine-3-carboxamide] here?
Answer: Its half-life at 1 µM is 6.05 h.

Question: What about the CC50 (Cell cytotoxicity CC50) of the same molecule?
Answer: Its CC50 is greater than 25000 nM.

Question: What about the half-life at 1 µM [2] of the same molecule?
Answer: The half-life at 1 µM was 5.42 h.

Question: What about the half-life at 1 µM [3] of the same molecule?
Answer: The half-life at 1 µM was 0.853 h.

Question: What about the EC50 (RSV A2; [5]) of the same molecule?
Answer: The EC50 was 33 nM.

Question: For O=C(N[C@H]1N=C(c2ccccc2)c2cccc(F)c2NC1=O)c1c(-c2ccccc2F)nn2c1OCC(F)(F)CC2 [Example 28, 6,6-Difluoro-N-[(3S)-9-fluoro-2-oxo-5-phenyl-2,3-dihydro-1H-1,4-benzodiazepin-3-yl]-2-(2-fluorophenyl)-5H,6H,7H,8H-pyrazolo[3,2-b][1,3]oxazepine-3-carboxamide], which half-life at 1 µM [1] is on record?
Answer: Its half-life at 1 µM is 11.2 h.

Question: What about the CC50 (Cell cytotoxicity CC50) of the same molecule?
Answer: The CC50 was greater than 25000 nM.

Question: What about the half-life at 1 µM [2] of the same molecule?
Answer: Its half-life at 1 µM is 31 h.

Question: What about the half-life at 1 µM [3] of the same molecule?
Answer: Its half-life at 1 µM is 3.25 h.

Question: And the EC50 (RSV A2; [5])?
Answer: Its EC50 is 45 nM.

Question: Which anti-RSV activity (RSV) does the source give for O=C(Nc1ccccc1F)N[C@H]1N=C(c2ccccc2)c2ccccc2NC1=O [RSV604] here?
Answer: The anti-RSV activity was “sub-micromolar”.

Question: Which results are given for “N-((S)-9-fluoro-2-oxo-5-phenyl-2,3-dihydro-1H-benzo[b]azepin-3-yl)-2-(2-fluorophenyl)-5,6,7,8-tetrahydro-5,8-methanopyrazolo[5,1-b][1,3]oxazepine-3-carboxamide [Example 19]”?
Answer: C 8 h ([4]; 8 h, route not stated in the row): 110 ng/mL; IV t½ ([4]; IV 1 mg/kg): 2.30 h; PO AUClast ([4]; PO 10 mg/kg): 4487 ng·h/mL; PO t½ ([4]; PO 10 mg/kg): 2.9 h; F ([4]; PO 10 mg/kg vs IV 1 mg/kg): 39.3%; Cmax ([4]; route not stated in the row, study IV 1 mg/kg, PO 10 mg/kg): 949 ng/mL; Cl ([4]; study IV 1 mg/kg, PO 10 mg/kg): 16.1 mL/min/kg; Vd ([4]; study IV 1 mg/kg, PO 10 mg/kg): 2.8 L/kg; Liver Microsomal Stability t½ ([1]; human liver microsomes, 0.5 mg/mL protein): 1.23 h; CC50 (Hep-G2 cells): > 25000 nM; Liver Microsomal Stability t½ ([2]; dog liver microsomes, 0.5 mg/mL protein): 1.92 h; Liver Microsomal Stability t½ ([3]; rat liver microsomes, 0.5 mg/mL protein): 2.13 h; EC50 (RSV A2): 37 nM
